Laboratory results taken from patent publication US20250179073A1, “TRICYCLIC HETEROCYCLE COMPOUNDS AS IAP ANTAGONISTS” (Ascentage Pharma (Suzhou) Co., Ltd., priority 2022, published 2025).

What was measured:
MDA-MB-231 cells = assay: Cell proliferation assay (CellTiter-Glo), MDA-MB-231; type: cell-based; conditions: Homo sapiens, MDA-MB-231, 72 h, 72 h treatment, Celltiter-Glo luminescence
In short: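 MDA-MB-231 (RPMI-1640/10% FBS) and EVSA-T (MEM/10% FBS) cells, 10000 cells/well, exposed 72 h to compound at […]. Viability read by CellTiter-Glo luminescence after 15 min at room temperature. IC50 from control-normalised curve fitting.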

EVSA-T cells = assay: Cell proliferation assay (CellTiter-Glo), EVSA-T; type: cell-based; conditions: Homo sapiens, EVSA-T, 72 h, 72 h treatment, Celltiter-Glo luminescence
Method: Example 238: Cell Proliferation Assay
MDA-MB-231 and EVSA-T cells (10000 cells/well) were plated onto 96-well plates (Corning, Cat #3917) in 95 μL of medium (RPMI-1640 containing 10% FBS and MEM containing 10% FBS, respectively). Compounds with various concentrations ([…]) were added to the wells. After treatment for 72 h, 30 μL of Celltiter-Glo reagent (Promega, Cat #G7573) was added and incubated at room temperature for 15 min, then the luminescent signal was determined using a microplate reader (Biotek, SynergyH1). The inhibitor dose-response curves were analyzed using normalized IC50 regression curve fitting with control based normalization.

Row | IC50 (MDA-MB-231 cells) [nM] | Structure (SMILES) | IC50 (EVSA-T cells) [nM]
1 | 51 | C[C@@H]1CN(CC(=O)N2CC(C)(C)c3c2cc(Cc2ccc(F)cc2)c2nc(CF)nn32)[C@@H](CN2CCOC[C@H]2C)CN1 [Compound 144, 1-(4-(4-fluorobenzyl)-2-(fluoromethyl)-8,8-dimethyl-7,8-dihydro-6H-pyrrolo[2,3-e][1,2,4]triazolo[1,5-a]pyridin-6-yl)-2-((2R,5R)-5-methyl-2-(((R)-3-methylmorpholino)methyl)piperazin-1-yl)ethan-1-one] | 3
2 | 4 | C[C@@H]1CN(CC(=O)N2CC(C)(C)c3c2cc(Cc2ccc(F)cc2)c2nc(-c4ccn[nH]4)nn32)[C@@H](CN2CCOC[C@H]2C)CN1 [Compound 247, 1-(4-(4-fluorobenzyl)-8,8-dimethyl-2-(1H-pyrazol-5-yl)-7,8-dihydro-6H-pyrrolo[2,3-e][1,2,4]triazolo[1,5-a]pyridin-6-yl)-2-((2R,5R)-5-methy 1-2-(((R)-3-methylmorpholino)methyl)piperazin-1-yl)ethan-1-one] | 6.2
3 | 370 | C[C@@H]1CN(CC(=O)N2CC(C)(C)c3c2cc(Cc2ccc(F)cc2)c2nc(C(N)=O)nn32)[C@@H](CN2CCOC[C@H]2C)CN1 [Example 31, 4-(4-fluorobenzyl)-8,8-dimethyl-6-(2-((2R,5R)-5-methyl-2-(((R)-3-methylmorpholino)methyl)piperazin-1-yl)acetyl)-7,8-dihydro-6H-pyrrolo[2,3-e][1,2,4]triazolo[1,5-a]pyridine-2-carboxamide] | 3
4 | 190 | C[C@@H]1CN(CC(=O)N2CC(C)(C)c3c2cc(Cc2ccc(F)cc2)c2nc(C(C)(C)O)nn32)[C@@H](CN2CCOC[C@H]2C)CN1 [Compound 137, 1-(4-(4-fluorobenzyl)-2-(2-hydroxypropan-2-yl)-8,8-dimethyl-7,8-dihydro-6H-pyrrolo[2,3-e][1,2,4]triazolo[1,5-a]pyridin-6-yl)-2-((2R,5R)-5-methyl-2-(((R)-3-methylmorpholino)methyl)piperazin-1-yl)ethan-1-one] | 12
5 | 50 | C[C@@H]1CN(CC(=O)N2CC(C)(C)c3c2cc(Cc2ccc(F)cc2)c2nc(C(F)F)nn32)[C@@H](CN2CCOC[C@H]2C)CN1 [Compound 142, 1-(2-(difluoromethyl)-4-(4-fluorobenzyl)-8,8-dimethyl-7,8-dihydro-6H-pyrrolo[2,3-e][1,2,4]triazolo[1,5-a]pyridin-6-yl)-2-((2R,5R)-5-methyl-2-(((R)-3-methylmorpholino)methyl)piperazin-1-yl)ethan-1-one] | 2
6 | 100 | C[C@@H]1CN(CC(=O)N2CC(C)(C)c3c2cc(Cc2ccc(F)cc2)c2ccnn32)[C@@H](CN2CCOC[C@H]2C)CN1 [Compound 148, 1-(4-(4-fluorobenzyl)-8,8-dimethyl-7,8-dihydro-6H-pyrazolo[1,5-a]pyrrolo[2,3-e]pyridin-6-yl)-2-((2R,5R)-5-methyl-2-(((R)-3-methylmorpholino)Methyl)piperazin-1-yl)ethan-1-one] | 6

Continued, molecule first:

Row | Structure (SMILES) | IC50 (MDA-MB-231 cells) [nM] | IC50 (EVSA-T cells) [nM]
7 | CC(O)Cn1nc2c(Cc3ccc(F)cc3)cc3c(n2c1=O)C(C)(C)CN3C(=O)CN1C[C@@H](C)NC[C@@H]1CN1CCOC[C@H]1C (stereo partly drawn) [Compound 269, 4-(4-fluorobenzyl)-2-(2-hydroxypropyl)-8,8-dimethyl-6-(2-((2R,5R)-5-methyl-2-(((R)-3-methylmorpholino)methyl)piperazin-1-yl)acetyl)-2,6,7,8-tetrahydro-1H-pyrrolo[2,3-e][1,2,4]triazolo[4,3-a]pyridin-1-one] | 10 | 5.1
8 | C[C@@H]1CN(CC(=O)N2CC(C)(C)c3c2cc(C(F)c2ccc(F)cc2)c2ncnn32)[C@@H](CN2CCOC[C@H]2C)CN1 (stereo partly drawn) [Compound 138, 1-(4-(fluoro(4-fluorophenyl)methyl)-8,8-dimethyl-7,8-dihydro-6H-pyrrolo[2,3-e][1,2,4]triazolo[1,5-a]pyridin-6-yl)-2-((2R,5R)-5-methyl-2-(((R)-3-methylmorpholino)methyl)piperazin-1-yl)ethan-1-one] | 160 | 33
9 | C[C@@H]1CN(CC(=O)N2CC(C)(C)c3c2cc(Cc2ccc(F)cc2)c2nc(C#N)cn32)[C@@H](CN2CCOC[C@H]2C)CN1 [Example 21, 4-(4-fluorobenzyl)-8,8-dimethyl-6-(2-((2R,5R)-5-methyl-2-(((R)-3-methylmorpholino)methyl)piperazin-1-yl)acetyl)-7,8-dihydro-6H-imidazo[1,2-a]pyrrolo[2,3-e]pyridine-2-carbonitrile] | 23 | 5
10 | C[C@@H]1CN(CC(=O)N2CC(C)(C)c3c2cc(Cc2ccc(F)cc2)c2ncnn32)[C@@H](CN2Cc3ncccc3C2=O)CN1 [Compound 95, 6-(((2R,5R)-1-(2-(4-(4-fluorobenzyl)-8,8-dimethyl-7,8-dihydro-6H-pyrrolo[2,3-e][1,2,4]triazolo[1,5-a]pyridin-6-yl)-2-oxoethyl)-5-methylpiperazin-2-yl)methyl)-6,7-dihydro-5H-pyrrolo[3,4-b]pyridin-5-one] | 12 | 0.4
11 | CCNC(=O)c1nc2c(Cc3ccc(F)cc3)cc3c(n2n1)C(C)(C)CN3C(=O)CN1C[C@@H](C)NC[C@@H]1CN1CCOC[C@H]1C [Compound 259, N-ethyl-4-(4-fluorobenzyl)-8,8-dimethyl-6-(2-((2R,5R)-5-methyl-2-(((R)-3-methylmorpholino)methyl)piperazin-1-yl)acetyl)-7,8-dihydro-6H-pyrrolo[2,3-e][1,2,4]triazolo[1,5-a]pyridine-2-carboxamide] | 87 | 15.8
12 | C[C@@H]1CN(CC(=O)N2CC(C)(C)c3c2cc(Cc2ccc(F)cc2)c2nc(N4CCOCC4)nn32)[C@@H](CN2CCOC[C@H]2C)CN1 [Compound 143, 1-(4-(4-fluorobenzyl)-8,8-dimethyl-2-morpholino-7,8-dihydro-6H-pyrrolo[2,3-e][1,2,4]triazolo[1,5-a]pyridin-6-yl)-2-((2R,5R)-5-methyl-2-(((R)-3-methylmorpholino)methyl)piperazin-1-yl)ethan-1-one] | 43 | 3
13 | C[C@@H]1CN(CC(=O)N2CC(C)(C)c3c2cc(Cc2ccc(F)cc2)c2nn(Cc4cccnc4)c(=O)n32)[C@@H](CN2CCOC[C@H]2C)CN1 [Compound 245, 4-(4-fluorobenzyl)-8,8-dimethyl-6-(2-((2R,5R)-5-methyl-2-(((R)-3-methylmorpholino)methyl)piperazin-1-yl)acetyl)-2-(pyridin-3-ylmethyl)-2,6,7,8-tetrahydro-1H-pyrrolo[2,3-e][1,2,4]triazolo[4,3-a]pyridin-1-one] | 5 | 6.2
14 | C[C@@H]1CN(CC(=O)N2CC(C)(C)c3c2cc(Cc2ccc(F)cc2)c2ncnn32)[C@@H](CN2CCN(CC#N)C[C@H]2C)CN1 [Compound 182, 2-((R)-4-(((2R,5R)-1-(2-(4-(4-fluorobenzyl)-8,8-dimethyl-7,8-dihydro-6H-pyrrolo[2,3-e][1,2,4]triazolo[1,5-a]pyridin-6-yl)-2-oxoethyl)-5-methylpiperazin-2-yl)methyl)-3-methylpiperazin-1-yl)acetonitrile] | 17 | 2
15 | C[C@@H]1CN(CC(=O)N2CC(C)(C)c3c2cc(Cc2ccc(F)cc2)c2nc(NC4COC4)nn32)[C@@H](CN2CCOC[C@H]2C)CN1 [Compound 187, 1-(4-(4-fluorobenzyl)-8,8-dimethyl-2-(oxetan-3-ylamino)-7,8-dihydro-6H-pyrrolo[2,3-e][1,2,4]triazolo[1,5-a]pyridin-6-yl)-2-((2R,5R)-5-methyl-2-(((R)-3-methylmorpholino)methyl)piperazin-1-yl)ethan-1-one] | 8 | 6
16 | COC(=O)N(C)c1nc2c(Cc3ccc(F)cc3)cc3c(n2n1)C(C)(C)CN3C(=O)CN1C[C@@H](C)NC[C@@H]1CN1CCOC[C@H]1C [Compound 225, methyl (4-(4-fluorobenzyl)-8,8-dimethyl-6-(2-((2R,5R)-5-methyl-2-(((R)-3-methylmorpholino)methyl)piperazin-1-yl)acetyl)-7,8-dihydro-6H-pyrrolo[2,3-e][1,2,4]triazolo[1,5-a]pyridin-2-yl)(methyl)carbamate] | 50 | 2
17 | C[C@@H]1CN(CC(=O)N2CC(C)(C)c3c2cc(Cc2ccc(F)cc2)c2nnc(C(F)(F)F)n32)[C@@H](CN2CCOC[C@H]2C)CN1 [Example 13, 1-(4-(4-fluorobenzyl)-8,8-dimethyl-1-(trifluoromethyl)-7,8-dihydro-6H-pyrrolo[2,3-e][1,2,4]triazolo[4,3-a]pyridin-6-yl)-2-((2R,5R)-5-methyl-2-(((R)-3-methylmorpholino)methyl)piperazin-1-yl)ethan-1-one] | 170 | 9
18 | C[C@@H]1CN(CC(=O)N2CC(C)(C)c3c2cc(Cc2ccc(F)cc2)c2ncnn32)[C@@H](CN2CCOC3CC32)CN1 (stereo partly drawn) [Compound 202, 2-((2S,5R)-2-((2-oxa-5-azabicyclo[4.1.0]heptan-5-yl)methy 1)-5-methylpiperazin-1-yl)-1-(4-(4-fluorobenzyl)-8,8-dimethyl-7,8-dihydro-6H-pyrrolo[2,3-e][1,2,4]triazolo[1,5-a]pyridin-6-yl)ethan-1-one] | 34 | 17
